Experimental data as given in article PMC12069442 (Frontiers in Pharmacology, 2025).

Assays:
CYP3A4.24 = CYP3A4.24 (Homo sapiens, UniProt P08684, Q200H); test: Ziprasidone catalysis by recombinant CYP3A4.24; conditions: CYP3A4.24, CL = Vmax/Km
Description: (§1) Following the incubation, 400 μL of ACN and 20 μL of IS were added to the mixture. The sample was then vortexed and centrifuged, and the resulting supernatant was collected for analysis via LC-MS/MS.

CYP3A4.1 = CYP3A4.1 (Homo sapiens, UniProt P08684); test: Ziprasidone catalysis by recombinant CYP3A4.1
Description: as §1

CYP3A4.12 = CYP3A4.12 (Homo sapiens, UniProt P08684, L373F); test: Ziprasidone catalysis by recombinant CYP3A4.12
Description: as §1

CYP3A4.3 = CYP3A4.3 (Homo sapiens, UniProt P08684, M445T); test: Ziprasidone catalysis by recombinant CYP3A4.3
Description: as §1

CYP3A4.31 = CYP3A4.31 (Homo sapiens, UniProt P08684, H324Q); test: Ziprasidone catalysis by recombinant CYP3A4.31
Description: as §1

CYP3A4.28 = CYP3A4.28 (Homo sapiens, UniProt P08684, L22V); test: Ziprasidone catalysis by recombinant CYP3A4.28
Description: as §1

[1] = parameters: method as in Beedham et al., 2003; conditions: humans; ref Beedham et al., 2003; cited from earlier work
CYP3A4.18 = CYP3A4.18 (Homo sapiens, UniProt P08684, L293P); test: Ziprasidone catalysis by recombinant CYP3A4.18
Description: as §1

CYP3A4.14 = CYP3A4.14 (Homo sapiens, UniProt P08684, L15P); test: Ziprasidone catalysis by recombinant CYP3A4.14
Description: as §1

CYP3A4.19 = CYP3A4.19 (Homo sapiens, UniProt P08684, P467S); test: Ziprasidone catalysis by recombinant CYP3A4.19
Description: as §1

CYP3A4.33 = CYP3A4.33 (Homo sapiens, UniProt P08684, A370S); test: Ziprasidone catalysis by recombinant CYP3A4.33; conditions: CYP3A4.33, CL = Vmax/Km
Description: as §1

CYP3A4.34 = CYP3A4.34 (Homo sapiens, UniProt P08684, I427V); test: Ziprasidone catalysis by recombinant CYP3A4.34; conditions: CYP3A4.34, CL = Vmax/Km
Description: as §1

CYP3A4.23 = CYP3A4.23 (Homo sapiens, UniProt P08684, R162W); test: Ziprasidone catalysis by recombinant CYP3A4.23
Description: as §1

CYP3A4.15 = CYP3A4.15 (Homo sapiens, UniProt P08684, R162Q); test: Ziprasidone catalysis by recombinant CYP3A4.15
Description: as §1

CYP3A4.10 = CYP3A4.10 (Homo sapiens, UniProt P08684, D174H); test: Ziprasidone catalysis by recombinant CYP3A4.10
Description: as §1

CYP3A4.16 = CYP3A4.16 (Homo sapiens, UniProt P08684, T185S); test: Ziprasidone catalysis by recombinant CYP3A4.16; conditions: CYP3A4.16, CL = Vmax/Km
Description: as §1

CYP3A4.8 = CYP3A4.8 (Homo sapiens, UniProt P08684, R130Q); test: Ziprasidone catalysis by recombinant CYP3A4.8
Description: as §1

CYP3A4.13 = CYP3A4.13 (Homo sapiens, UniProt P08684, P416L); test: Ziprasidone catalysis by recombinant CYP3A4.13
Description: as §1

[2] = Rat pharmacokinetic study of ziprasidone and ziprasidone sulfoxide with resveratrol or quercetin; conditions: male, Sprague-Dawley, plasma, po, 15 mg/kg, rats, n=6; for CL/F: CLz/F; for Vd/F: Vz/F; for half-life: t1/2z
Description: To minimize potential confounding effects of hormonal fluctuations, this study exclusively utilized male Sprague-Dawley (SD) rats (340 ± 15 g) obtained from Vital River Laboratories (Beijing, China).
Following a 7-day acclimatization period under controlled conditions (temperature: 20°C–25°C; humidity: 50%–65%; 12h/12 h light/dark cycle), 18 rats were fasted for 12 h (water ad libitum) and randomly divided into three treatment groups (n = 6 per group).
Serial blood samples (50 μL) were collected at predetermined time points (0, 1, 2, 4, 6, 8, 10, 12, 24, and 48 h) and processed with 150 μL acetonitrile and 20 μL midazolam IS (500 ng/mL). After vortex-mixing (2 min) and centrifugation (10,075 × g, 10 min), the supernatant was subjected to LC-MS/MS analysis. […] Calibration curves were established over 1–1,000 ng/mL for both analytes, with samples processed identically to study specimens.
Essential pharmacokinetic parameters were determined using a non-compartmental model through Drug and Statistics (DAS) software version 3.0. For the polymorphism experiment results, one-way ANOVA was performed in GraphPad Prism 8.0, while pharmacokinetic data were assessed using an unpaired t-test, with a p-value below 0.05 deemed statistically significant.

CYP3A4.9 = CYP3A4.9 (Homo sapiens, UniProt P08684, V170I); test: Ziprasidone catalysis by recombinant CYP3A4.9
Description: as §1

CYP3A4.32 = CYP3A4.32 (Homo sapiens, UniProt P08684, I335T); test: Ziprasidone catalysis by recombinant CYP3A4.32
Description: as §1

CYP3A4.5 = CYP3A4.5 (Homo sapiens, UniProt P08684, P218R); test: Ziprasidone catalysis by recombinant CYP3A4.5
Description: as §1

[3] = ziprasidone 15 mg/kg oral + quercetin 50 mg/kg i.g.
[4] = ziprasidone 15 mg/kg oral + resveratrol 50 mg/kg i.g.
[5] = ziprasidone 15 mg/kg oral, control (corn oil)

Sequence of CYP3A4.3 (P08684 whole entry M445T): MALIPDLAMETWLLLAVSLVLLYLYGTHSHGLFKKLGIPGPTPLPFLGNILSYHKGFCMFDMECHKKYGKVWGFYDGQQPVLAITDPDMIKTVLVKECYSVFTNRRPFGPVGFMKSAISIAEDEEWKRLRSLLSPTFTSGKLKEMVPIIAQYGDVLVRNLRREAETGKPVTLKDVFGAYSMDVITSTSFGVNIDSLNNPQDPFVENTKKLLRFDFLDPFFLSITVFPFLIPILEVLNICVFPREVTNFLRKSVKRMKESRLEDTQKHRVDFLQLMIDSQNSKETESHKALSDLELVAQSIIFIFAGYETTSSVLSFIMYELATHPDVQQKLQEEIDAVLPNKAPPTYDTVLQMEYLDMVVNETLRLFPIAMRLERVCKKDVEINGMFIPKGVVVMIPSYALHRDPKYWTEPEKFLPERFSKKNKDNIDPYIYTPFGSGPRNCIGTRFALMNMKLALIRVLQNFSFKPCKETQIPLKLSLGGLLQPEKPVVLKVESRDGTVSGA
Sequence of CYP3A4.14 (P08684 whole entry L15P): as the sequence (P08684 whole entry M445T) above, with L15P, T445M counted along it
Sequence of CYP3A4.23 (P08684 whole entry R162W): as the sequence (P08684 whole entry M445T) above, with R162W, T445M counted along it
Sequence of CYP3A4.18 (P08684 whole entry L293P): as the sequence (P08684 whole entry M445T) above, with L293P, T445M counted along it
Sequence of CYP3A4.32 (P08684 whole entry I335T): as the sequence (P08684 whole entry M445T) above, with I335T, T445M counted along it
Sequence of CYP3A4.12 (P08684 whole entry L373F): as the sequence (P08684 whole entry M445T) above, with L373F, T445M counted along it
Sequence of CYP3A4.8 (P08684 whole entry R130Q): as the sequence (P08684 whole entry M445T) above, with R130Q, T445M counted along it
Sequence of CYP3A4.9 (P08684 whole entry V170I): as the sequence (P08684 whole entry M445T) above, with V170I, T445M counted along it
Sequence of CYP3A4.31 (P08684 whole entry H324Q): as the sequence (P08684 whole entry M445T) above, with H324Q, T445M counted along it
Sequence of CYP3A4.1 (P08684 whole entry): as the sequence (P08684 whole entry M445T) above, with T445M counted along it
Sequence of CYP3A4.15 (P08684 whole entry R162Q): as the sequence (P08684 whole entry M445T) above, with R162Q, T445M counted along it
Sequence of CYP3A4.13 (P08684 whole entry P416L): as the sequence (P08684 whole entry M445T) above, with P416L, T445M counted along it
Sequence of CYP3A4.10 (P08684 whole entry D174H): as the sequence (P08684 whole entry M445T) above, with D174H, T445M counted along it
Sequence of CYP3A4.5 (P08684 whole entry P218R): as the sequence (P08684 whole entry M445T) above, with P218R, T445M counted along it
Sequence of CYP3A4.19 (P08684 whole entry P467S): as the sequence (P08684 whole entry M445T) above, with T445M, P467S counted along it
Sequence of CYP3A4.28 (P08684 whole entry L22V): as the sequence (P08684 whole entry M445T) above, with L22V, T445M counted along it
Sequence of CYP3A4.34 (P08684 whole entry I427V): as the sequence (P08684 whole entry M445T) above, with I427V, T445M counted along it
Sequence of CYP3A4.24 (P08684 whole entry Q200H): as the sequence (P08684 whole entry M445T) above, with Q200H, T445M counted along it
Sequence of CYP3A4.33 (P08684 whole entry A370S): as the sequence (P08684 whole entry M445T) above, with A370S, T445M counted along it
Sequence of CYP3A4.16 (P08684 whole entry T185S): as the sequence (P08684 whole entry M445T) above, with T185S, T445M counted along it

CL (CYP3A4.24): 3.46 ± 0.67 µL/min/pmol
CL (CYP3A4.1; CYP3A4.1, CL = Vmax/Km): 6.07 ± 1.19 µL/min/pmol
% of CYP3A4.1 (CYP3A4.1; CYP3A4.1, relative clearance): 100.00 ± 19.66%
CL (CYP3A4.12; CYP3A4.12, CL = Vmax/Km): 5.72 ± 0.87 µL/min/pmol
% of CYP3A4.1 (CYP3A4.12; CYP3A4.12, relative clearance): 94.29 ± 14.33%
CL (CYP3A4.3; CYP3A4.3, CL = Vmax/Km): 9.30 ± 0.85 µL/min/pmol
% of CYP3A4.1 (CYP3A4.3; CYP3A4.3, relative clearance): 153.26 ± 14.08 %
CL (CYP3A4.31; CYP3A4.31, CL = Vmax/Km): 4.08 ± 0.83 µL/min/pmol
% of CYP3A4.1 (CYP3A4.31; CYP3A4.31, relative clearance): 55.46 ± 11.30 %
CL (CYP3A4.28; CYP3A4.28, CL = Vmax/Km): 5.69 ± 1.01 µL/min/pmol
% of CYP3A4.1 (CYP3A4.28; CYP3A4.28, relative clearance): 77.40 ± 13.81%
CL (CYP3A4.18; CYP3A4.18, CL = Vmax/Km): 6.56 ± 1.12 µL/min/pmol
% of CYP3A4.1 (CYP3A4.18; CYP3A4.18, relative clearance): 89.27 ± 15.28%
CL (CYP3A4.14; CYP3A4.14, CL = Vmax/Km): 6.64 ± 0.48 µL/min/pmol
% of CYP3A4.1 (CYP3A4.14; CYP3A4.14, relative clearance): 109.41 ± 7.88%
CL (CYP3A4.19; CYP3A4.19, CL = Vmax/Km): 6.19 ± 0.53 µL/min/pmol
% of CYP3A4.1 (CYP3A4.19; CYP3A4.19, relative clearance): 84.26 ± 7.20%
CL (CYP3A4.33): 14.74 ± 0.74 µL/min/pmol
CL (CYP3A4.34): 4.65 ± 0.66 µL/min/pmol
CL (CYP3A4.23; CYP3A4.23, CL = Vmax/Km): 6.11 ± 0.83 µL/min/pmol
% of CYP3A4.1 (CYP3A4.23; CYP3A4.23, relative clearance): 83.13 ± 11.26%
CL (CYP3A4.15; CYP3A4.15, CL = Vmax/Km): 9.53 ± 1.38 µL/min/pmol
% of CYP3A4.1 (CYP3A4.15; CYP3A4.15, relative clearance): 157.07 ± 22.67 %
CL (CYP3A4.10; CYP3A4.10, CL = Vmax/Km): 4.52 ± 0.35 µL/min/pmol
% of CYP3A4.1 (CYP3A4.10; CYP3A4.10, relative clearance): 74.60 ± 5.81%
CL (CYP3A4.16): 6.79 ± 1.26 µL/min/pmol
CL (CYP3A4.8; CYP3A4.8, CL = Vmax/Km): 5.71 ± 0.42 µL/min/pmol
% of CYP3A4.1 (CYP3A4.8; CYP3A4.8, relative clearance): 94.14 ± 6.86%
CL (CYP3A4.13; CYP3A4.13, CL = Vmax/Km): 5.60 ± 0.90 µL/min/pmol
% of CYP3A4.1 (CYP3A4.13; CYP3A4.13, relative clearance): 92.30 ± 14.84%
AUC(0-t) [2, 3]: 9390 ng·h/mL
AUC(0-t) [2, 4]: 6760 ng·h/mL
AUC(0-t) [2, 5]: 6610 ng·h/mL
AUC(0-inf) [2, 3]: 9390 ng·h/mL
AUC(0-inf) [2, 4]: 6760 ng·h/mL
AUC(0-inf) [2, 5]: 6980 ng·h/mL
CL/F [2, 3]: 94.2 mL/min/kg
CL/F [2, 4]: 150 mL/min/kg
CL/F [2, 5]: 43.8 mL/min/kg
Cmax [2, 3]: 1620 ng/mL
Cmax [2, 4]: 1160 ng/mL
Cmax [2, 5]: 963 ± 367 ng/mL
Tmax [2, 3]: 4 ± 1.79 h
Tmax [2, 4]: 4.33 ± 2.66 h
Tmax [2, 5]: 4 ± 2.19 h
Vd/F [2, 3]: 33.3 ± 22.1 L/kg
Vd/F [2, 4]: 56.1 ± 42.7 L/kg
Vd/F [2, 5]: 24.3 ± 19.1 L/kg
half-life [2, 3]: 3.79 ± 2.11 h
half-life [2, 4]: 4.06 ± 1.52 h
half-life [2, 5]: 8.64 ± 10.8 h
CL (CYP3A4.9; CYP3A4.9, CL = Vmax/Km): 7.92 ± 0.36 µL/min/pmol
% of CYP3A4.1 (CYP3A4.9; CYP3A4.9, relative clearance): 130.65 ± 6.00%
CL (CYP3A4.32; CYP3A4.32, CL = Vmax/Km): 7.66 ± 1.55 µL/min/pmol
% of CYP3A4.1 (CYP3A4.32; CYP3A4.32, relative clearance): 104.25 ± 21.13%
CL (CYP3A4.5; CYP3A4.5, CL = Vmax/Km): 4.65 ± 0.52 µL/min/pmol
% of CYP3A4.1 (CYP3A4.5; CYP3A4.5, relative clearance): 76.73 ± 8.59%
Compound: O=C1Cc2cc(CCN3CCN(c4nsc5ccccc45)CC3)c(Cl)cc2N1 [ziprasidone, Ziprasidone]
administered dose excreted unchanged [1]: less than 5%
